# Experimental data: US20120121540A1 (priority 2007, published 2012)
# What was measured:
# [1] = patients treated at currently recommended doses; cited from earlier work
# [2] = HCV replicon assay (luciferase reporter, ET cell line); type: cell-based; details: Hepatitis C virus, HCV replicon luciferase activity in ET cells
# How it was run: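 ET cells carry a stable luciferase-ubiquitin-neo/NS3-5B subgenomic HCV replicon with adaptive mutations. Compounds (0.1 nM to […], 0.5% DMSO) were added 24 h after plating, and luciferase was read 48-72 h later. EC50 came from 10-point 2-fold dilutions fitted to a Hill equation; TC50 was measured in parallel by WST-1.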
SMILES,patients with significant hemolysis [1],inhibition at 10 µM [2] [%]
"NC(=O)c1ncn([C@@H]2O[C@H](CO)[C@@H](O)[C@H]2O)n1 [Ribavirin, ribavirin]",10-20%,–
"COc1ccc(C2CCN(C(=O)c3nc4c(C(F)(F)F)cc(-c5ccoc5)cn4c3Cl)C2)cc1OC (centres unmarked) [Compound 339, (3-Chloro-6-furan-3-yl-8-trifluoromethyl-imidazo[1,2-a]pyridin-2-yl)-[3-(3,4-dimethoxy-phenyl)-pyrrolidin-1-yl]-methanone]",–,63
